According to US20090042770A1, “Branched Chain Amino Acid Chelate” (priority 2007, published 2009):

Assays:
[1] = Incorporation of leucine products into beverages / aqueous systems (dispersibility, separation, turbidity); format: physicochemical; conditions: for ease of dispersion when incorporated into beverages: beverages / aqueous systems
[2] = pre-hydrolyzed BSA perfused into jejunum of human subjects (Reicht et al. 1997); cited from earlier work

Molecule | appearance in aqueous solution (separation, turbidity) [1] | ease of dispersion when incorporated into beverages [1] | rate of absorption [2] [%]
calcium leucinate [chelated leucine product] | did not separate or increase turbidity | much more easily dispersed | –
N[C@@H](CSSC[C@H](N)C(=O)O)C(=O)O [cystine] | – | – | 3
CC(C)C[C@H](N)C(=O)O [free leucine, (S)-2-amino-4-methylpentanoic acid, reference compound] | separation phenomenon | difficult to disperse | –
